The values below come from PMC9388626, “STUB1 is an intracellular checkpoint for interferon gamma sensing” (Scientific Reports, 2022).

Peptide text beside a SMILES is read from it.

Data set [1] addresses T1, STUB1 (aa25–aa153) (Homo sapiens, UniProt Q9UNE7).
T1 sequence (Q9UNE7 25-153): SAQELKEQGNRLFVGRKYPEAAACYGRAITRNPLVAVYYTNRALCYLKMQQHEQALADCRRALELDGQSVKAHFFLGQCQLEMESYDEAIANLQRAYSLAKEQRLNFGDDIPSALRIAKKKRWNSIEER
As to the kind of experiment: Isothermal titration calorimetry. It counts as binding. Conditions: ITC. The protocol: Recombinant STUB1 protein, spanning aa25-aa153, was produced by Nanyang Technological University protein production platform. The purity and identity of the protein was confirmed by mass spectrometry and SDS-PAGE. Synthetic peptides, in a form of N-acetylation and free C-terminal carboxylic acid, were custom made by Chinese Peptide Company (CPC). The purity and identity of the peptides were confirmed by analytic HPLC (≥ 95% purity) and mass spectrometry. Peptides are dissolved in neat DMSO as 10 mM stock solution and diluted thereof for subsequent experiments.
Recombinant STUB1 protein (aa25-aa153) was dialyzed overnight with Slide-A-Lyzer cassette (7 K MWCO, Thermo Scientific, #66373) in 1 L of dialysis buffer (PBS, pH 7.4, 0.5 mM TCEP). The dialyzed protein solution was centrifuged at 15,000 rpm for 10 min at 4 °C to remove potential precipiates. The protein was diluted to 20 µM using the dialysis buffer, followed by the additon of DMSO spike-in (2% final concentration). The synthetic peptides (10 mM in DMSO) were diluted to 200 µM with the dialysis buffer (2% final DMSO concentration). ITC measurements were performed at 25 °C using a Microcal PEAQ-ITC (Malvern Panalytical Inc). An initial injection of 0.4 µl followed by a total of 39 injections of peptide solution (1 µl, 200 µM) were added at an intervals of 2 min into the protein solution (20 µM) while stirring at 750 rpm. The data point produced by the first injection was discarded prior to curve fitting in order to account for the diffusion effect during the equilibration process. The experimental data were fitted to a non-interacting one-site binding model using the analysis software supplied by Microcal, with ΔH (enthalpy change), Ka (association constant) and N (number of binding sites per monomer) as adjustable parameters. Free energy change (ΔG) and entropy contributions (TΔS) were determined from the standard equation: ΔG = ΔH − TΔS = − RT lnKa, where T is the absolute temperature and R = 1.987 cal mol^−1 K^−1.

Data set [2] has as its system STUB1 (aa25-aa153). Description: Thermal shift assay (SYPRO Orange). It counts as binding. Conditions: 100 µM peptide, 10 µM protein, relative to DMSO vehicle, mean ± s.d. from three independent experiments. The source says:
The SYPRO Orange fluorescent dye (Invitrogen) was used to measure the thermal stability of recombinant STUB1 protein (aa25-aa153). With increasing temperature, binding of the dye molecule to the hydrophobic region of the denatured STUB1 results in an increase in the fluorescence intensity. The midpoint of this transition is termed the Tm. Binding of a ligand, such as peptide, stabilizes the protein and results in a melting temperature shift (ΔTm), which correlates with the binding affinity of the ligand. The thermal shift assay was conducted in a CFX96 real-time PCR detection system (Bio-Rad). A total of 50 µl mixture containing 3.125 × SYPRO Orange (Invitrogen, diluted from 5000 × DMSO stock), 100 µM peptide of interest, and 10 µM protein was prepared in a PCR 8-well strip tube. The samples were heated from 25 to 95 °C in 0.5 °C increment each cycle. The holding time for each cycle is 5 s, after which the fluorescence intensity was measured in Channel 2 (HEX) with Ex/Em: 515–535/560–580 nm. Each independent experiment was performed in technical duplicates.

The target of data set [3] is T1, STUB1 (aa25–aa153). As to the kind of experiment: Competitive fluorescence polarization assay. Conditions: 15 nM 5-FAM-[…] tracer, 1 µM STUB1, PBS pH 7.4, 0.01% Tween 20, room temperature, 30 min; mean ± s.e., six replicates from two independent experiments. It counts as binding. The protocol: The assays were performed at room temperature using assay buffer (PBS, pH 7.4, 0.01% v/v Tween 20) and black 384-well non-binding polystyrene microplate (Greiner Bio-one, #784900). The peptide of interest was first diluted (10-point, threefold serial dilution) with the assay buffer on the microplate to have a volume of 10 µl in each well. This was followed by the addition of 10 µl mixture containing 5-FAM-[…]-CO2H (30 nM) and the recombinant STUB1 protein (2 µM). The final assay solution (20 µl) contains 5-FAM-labeled tracer peptide (15 nM), protein (1 µM) and peptide of interest (5 nM to 100 µM). After 30 min incubation in the dark, the microplate was read with TECAN Infinite M1000 PRO (Ex: 470 nm, Em: 520 nm, bandwidth: 5 nm, G-factor = 1.05, gain: optimal, #flashes = 10, settle time = 0 ms, z position: calculated from well). Value of polarization (mP) = 1000 × (G × intensity‖ − intensity ⊥ )/(G × intensity‖ + intensity ⊥ ). Half maximal inhibitory concentration (IC50) was determined by fitting the curve using 4-parameter sigmoidal function in GraphPad Prism. Each independent experiment was performed in technical triplicates.
A general note: In fluorescence polarisation assays a small probe gives low polarisation when free and higher when bound to something large.

Data set [4] relates to STUB1. As to the kind of experiment: Co-immunoprecipitation of FLAG-mCherry2-peptide and STUB1. The class given is binding, murine. As to conditions: spiked into co-IP mixture, room temperature, 4 h. The protocol:
B16-F10 cells stably expressing the biologic were harvested, rinsed with PBS, and lysed with chilled cell lysis buffer (Cell Signaling Technology, #9803) supplemented with Halt protease inhibitor cocktail (Life Technologies, #78430) and phosphatase inhibitor (Sigma-Aldrich, # 4906837001). Cellular lysates were clarified by centrifugation at 15,000 rpm at 4 °C for 15 min. Protein concentration was determined using BCA protein assay kit (Pierce, #23225). For each sample of the co-immunoprecipitation (co-IP), 20 µl of anti-FLAG magnetic beads (Sigma-Aldrich, M8823) was rinsed twice with 0.2 ml PBS, followed by addition of 500 µl diluted cellular lysate (60 µg, 0.12 µg µl^−1). For competitive inhibition, synthetic peptide (SIWWPD) was added into the co-IP mixture. The resulting mixture was rotated at room temperature for 4 h, after which the beads were rinsed with 3 × 0.5 ml PBS to remove the unbound proteins. Bound protein complexes were directly eluted with a 20 µl solution of LDS sample buffer (Life Technologies, NP0008) supplemented with sample reducing agent (Life Technologies, NP0009), followed by heating at 70 °C for 10 min. […] Blotting was similar to the Western Blot section described above. Primary antibodies used were: STUB1/CHIP (Cell Signaling Technology, #2080, 1:1000 dilution), FLAG (Sigma-Aldrich, F1804, 1:1000 dilution). […]

Data set [5] has as its system STUB1. Also noted: method as in PMID 31320752. As to conditions: cited from earlier work.
Data set [6] addresses T2, Recombinant STUB1 protein, spanning aa25-aa153 (UniProt Q9UNE7 25-153).
T2 construct: STUB1 (E3 ligase, also STUB1/CHIP), residues 25-153; also called STUB1 (aa25–aa153); CHIP; source: recombinant, produced by Nanyang Technological University protein production platform; purity and identity confirmed by mass spectrometry and SDS-PAGE
T2 sequence (looked up): T1 sequence (Q9UNE7 25-153)
As to the kind of experiment: ITC; peptide (200 µM) injected into STUB1 aa25-aa153 (20 µM); 25 °C; PBS pH 7.4, 0.5 mM TCEP, 2% DMSO; one-site binding model. As to conditions: both partners purified.

The target in data set [7] is T2, Recombinant STUB1 protein, spanning …. As to the kind of experiment: fluorescence polarisation; competitive; 15 nM tracer 5-FAM-…, 1 µM STUB1 aa25-aa153, peptide of interest 5 nM to 100 µM; room temperature; PBS pH 7.4, 0.01% v/v Tween 20; 30 min incubation. As to conditions: both partners purified.
Data set [8] shares this target. Description: thermal shift assay; SYPRO Orange; 100 µM peptide, 10 µM STUB1 aa25-aa153; heated from 25 to 95 °C in 0.5 °C increments. Conditions: both partners purified.
For data set [9], the target named is T3, Recombinant STUB1 protein, spanning aa25-aa153 (UniProt Q9UNE7 25-153).
T3 chain: T1 sequence (Q9UNE7 25-153)
Description: FP.

The target in data set [10] is T3, Recombinant STUB1 protein, spanning …. Description: ITC. Background: ITC needs no label: the signal is the heat of the interaction.

As a reminder, the Kd is the equilibrium constant for the complex coming apart. Broadly, the ΔTm is the change in melting temperature against a reference sample. Broadly, the IC50 is the point on the concentration scale where inhibition reaches its midpoint. As for `CC[C@H](C)[C@H](NC(=O)[C@H](CO)NC(C)=O)C(=O)N[C@@H](Cc1c[nH]c2ccccc12)C(=O)N[C@@H](Cc1c[nH]c2ccccc12)C(=O)N[C@@H](Cc1c[nH]cn1)C(=O)N[C@@H](CCCNC(=N)N)C(=O)O` [SIWWHR] (Ac-SIWWHR-OH), the “Binding to STUB1” value in [1] was “non-binding”. In data set [1] (PBS pH 7.4, 0.5 mM TCEP, 2% DMSO, 25 °C, 200 µM peptide into 20 µM protein), this molecule returned a Kd above 10000 nM. Also, the ΔTm in [2] was -0.1 ± 0.2 °C. Moreover, the IC50 in data set [3] was above 100000 nM.

In the case of `CC[C@H](C)[C@H](NC(=O)[C@H](CO)NC(C)=O)C(=O)N[C@@H](Cc1c[nH]c2ccccc12)C(=O)N[C@@H](Cc1c[nH]c2ccccc12)C(=O)N1CCC[C@H]1C(=O)N[C@@H](CC(=O)O)C(=O)O` [SIWWPD, reference compound] (Ac-SIWWPD-OH), the “Reversal of co-immunoprecipitation by synthetic peptide” value in data set [4] was “completely reversible in a dose-dependent manner”. Moreover, in [1], the “Binding to STUB1” value is “bound strongly to the protein”. Further, in data set [5], the “Blocking of STUB1 interaction with HSPA8” value is “capable of blocking the interaction of STUB1 with HSPA8”. Moreover, in data set [2], the ΔTm turned out to be 18.3 ± 0.1 °C.

B1: synthetic inhibitory peptide SIWWPD (peptide)
peptide: Ac-SIWWPD-OH
notes: source: synthetic peptide, custom made by Chinese Peptide Company (CPC)
Regarding B1, in data set [6], the Kd came out at 14 ± 2 nM. In data set [7], the 50% inhibitory concentration (IC50) amounted to 340 nM. Besides, in [8], the ΔTm worked out at 18.3 °C.

As for Ac-TIEEVD-OH, the concentration for half-maximal inhibition (IC50) in data set [9] stood at 2700 nM. Besides, the dissociation constant (Kd) in [10] worked out at 2190 nM.
